Test results from US10626144B2, “Peptide derivatives and uses thereof” (Nosopharm, priority 2014, dated 2020).
Square brackets hold non-standard residues; d marks the D form. Peptide text beside a SMILES is read from it. Phe(3-CF3) = N[C@@H](Cc1cccc(C(F)(F)F)c1)C(=O)O; Phe(2-CONH2) = NC(=O)c1ccccc1C[C@H](N)C(=O)O; Phe(3,4-F2) = N[C@@H](Cc1ccc(F)c(F)c1)C(=O)O; Phe(3,5-F2) = N[C@@H](Cc1cc(F)cc(F)c1)C(=O)O; Phe(3-CN) = N#Cc1cccc(C[C@H](N)C(=O)O)c1; Phe(2-CN) = N#Cc1ccccc1C[C@H](N)C(=O)O; Phe(2-Cl) = N[C@@H](Cc1ccccc1Cl)C(=O)O; Dab(3S-OH) = NC[C@H](O)[C@H](N)C(=O)O; Phe(2-Me) = Cc1ccccc1C[C@H](N)C(=O)O; His(π-Me) = Cn1cncc1C[C@H](N)C(=O)O; ΔZArg = N=C(N)NCC/C=C(\N)C(=O)O; dOrn = NCCC[C@@H](N)C(=O)O

Legend:
Assay in all cases: MIC, broth microdilution (CLSI), reference strain
Conditions in all cases: CAMHB
[1] = test system: Pseudomonas aeruginosa ATCC 27853
[2] = test system: Escherichia coli ATCC 25922
[3] = test system: Staphylococcus aureus ATCC 13709
[4] = test system: Acinetobacter baumannii ATCC 19606

SMILES	Pa: MIC Pseudomonas aeruginosa ATCC 27853 [1]	Ec: MIC Escherichia coli ATCC 25922 [2]	Sa: MIC Staphylococcus aureus ATCC 13709 [3]	Ab: MIC Acinetobacter baumannii ATCC 19606 [4]
C[C@H](NC(=O)[C@@H](NC(=O)[C@@H](N)CCCCN)[C@@H](O)CN)C(=O)NCC(=O)N[C@H](CCCN)C(=O)N1CCC[C@H]1C(=O)N[C@@H](Cc1ccccc1Cl)C(=O)N[C@@H](CCCCN)C(=O)N/C(=C\CCNC(=N)N)C(=O)O [24.80] (H-K[Dab(3S-OH)]AG[dOrn]P[Phe(2-Cl)]K[ΔZArg]-OH)	− (>32 μg/mL)	+ (≤32 μg/mL)	++ (≤8 μg/mL)	− (>32 μg/mL)
C[C@H](NC(=O)[C@@H](NC(=O)[C@@H](N)CCCCN)[C@@H](O)CN)C(=O)NCC(=O)N[C@H](CCCN)C(=O)N1CCC[C@H]1C(=O)N[C@@H](Cc1ccccc1C#N)C(=O)N[C@@H](CCCCN)C(=O)N/C(=C\CCNC(=N)N)C(=O)O [24.81] (H-K[Dab(3S-OH)]AG[dOrn]P[Phe(2-CN)]K[ΔZArg]-OH)	− (>32 μg/mL)	− (>32 μg/mL)	− (>32 μg/mL)	− (>32 μg/mL)
C[C@H](NC(=O)[C@@H](NC(=O)[C@@H](N)CCCCN)[C@@H](O)CN)C(=O)NCC(=O)N[C@H](CCCN)C(=O)N1CCC[C@H]1C(=O)N[C@@H](Cc1ccccc1C(N)=O)C(=O)N[C@@H](CCCCN)C(=O)N/C(=C\CCNC(=N)N)C(=O)O [24.82] (H-K[Dab(3S-OH)]AG[dOrn]P[Phe(2-CONH2)]K[ΔZArg]-OH)	− (>32 μg/mL)	− (>32 μg/mL)	+ (≤32 μg/mL)	− (>32 μg/mL)
Cc1ccccc1C[C@H](NC(=O)[C@@H]1CCCN1C(=O)[C@@H](CCCN)NC(=O)CNC(=O)[C@H](C)NC(=O)[C@@H](NC(=O)[C@@H](N)CCCCN)[C@@H](O)CN)C(=O)N[C@@H](CCCCN)C(=O)N/C(=C\CCNC(=N)N)C(=O)O [24.83] (H-K[Dab(3S-OH)]AG[dOrn]P[Phe(2-Me)]K[ΔZArg]-OH)	− (>32 μg/mL)	+ (≤32 μg/mL)	++ (≤8 μg/mL)	− (>32 μg/mL)
C[C@H](NC(=O)[C@@H](NC(=O)[C@@H](N)CCCCN)[C@@H](O)CN)C(=O)NCC(=O)N[C@H](CCCN)C(=O)N1CCC[C@H]1C(=O)N[C@@H](Cc1ccc(F)c(F)c1)C(=O)N[C@@H](CCCCN)C(=O)N/C(=C\CCNC(=N)N)C(=O)O [24.84] (H-K[Dab(3S-OH)]AG[dOrn]P[Phe(3,4-F2)]K[ΔZArg]-OH)	− (>32 μg/mL)	++ (≤8 μg/mL)	++ (≤8 μg/mL)	− (>32 μg/mL)
C[C@H](NC(=O)[C@@H](NC(=O)[C@@H](N)CCCCN)[C@@H](O)CN)C(=O)NCC(=O)N[C@H](CCCN)C(=O)N1CCC[C@H]1C(=O)N[C@@H](Cc1cc(F)cc(F)c1)C(=O)N[C@@H](CCCCN)C(=O)N/C(=C\CCNC(=N)N)C(=O)O [24.86] (H-K[Dab(3S-OH)]AG[dOrn]P[Phe(3,5-F2)]K[ΔZArg]-OH)	− (>32 μg/mL)	+ (≤32 μg/mL)	++ (≤8 μg/mL)	− (>32 μg/mL)
C[C@H](NC(=O)[C@@H](NC(=O)[C@@H](N)CCCCN)[C@@H](O)CN)C(=O)NCC(=O)N[C@H](CCCN)C(=O)N1CCC[C@H]1C(=O)N[C@@H](Cc1cccc(C(F)(F)F)c1)C(=O)N[C@@H](CCCCN)C(=O)N/C(=C\CCNC(=N)N)C(=O)O [24.87] (H-K[Dab(3S-OH)]AG[dOrn]P[Phe(3-CF3)]K[ΔZArg]-OH)	− (>32 μg/mL)	+ (≤32 μg/mL)	++ (≤8 μg/mL)	− (>32 μg/mL)
C[C@H](NC(=O)[C@@H](NC(=O)[C@@H](N)CCCCN)[C@@H](O)CN)C(=O)NCC(=O)N[C@H](CCCN)C(=O)N1CCC[C@H]1C(=O)N[C@@H](Cc1cccc(C#N)c1)C(=O)N[C@@H](CCCCN)C(=O)N/C(=C\CCNC(=N)N)C(=O)O [24.89] (H-K[Dab(3S-OH)]AG[dOrn]P[Phe(3-CN)]K[ΔZArg]-OH)	− (>32 μg/mL)	+ (≤32 μg/mL)	++ (≤8 μg/mL)	− (>32 μg/mL)
C[C@H](NC(=O)[C@@H](NC(=O)[C@@H](N)CCCCN)[C@@H](O)CN)C(=O)NCC(=O)N[C@H](CCCN)C(=O)N1CCC[C@H]1C(=O)N[C@@H](Cc1cncn1C)C(=O)N[C@@H](CCCCN)C(=O)N/C(=C\CCNC(=N)N)C(=O)O [24.91] (H-K[Dab(3S-OH)]AG[dOrn]P[His(π-Me)]K[ΔZArg]-OH)	− (>32 μg/mL)	+ (≤32 μg/mL)	+ (≤32 μg/mL)	− (>32 μg/mL)
